# Measured values as given in article PMC3805573, “Methylglyoxal Evokes Pain by Stimulating TRPA1” (PLoS ONE, 2013).
# Legend:
# TRPA1 = assay: Outward TRPA1 currents in absence of Ca2+, effect of DTT; format: cell-based; conditions: +60 mV, Ca2+-free
# Experimental: DRG neurons and TRPA1 CHO cells were studied under voltage-clamp conditions using an Axopatch 200B amplifier and pClamp 10.0 software (Molecular Devices, Sunnyvale, CA). Except where stated otherwise, whole cell recordings were performed at a holding potential of –60 mV using an extracellular solution with the composition described above for [Ca^2+]i measurements. Borosilicate glass pipettes (2–5 MΩ, 75–80% series resistance compensation) were filled with (in mM) 140 KCl, 1 CaCl2, 2 MgATP, 10 EGTA, and 10 HEPES buffered to pH 7.4 (KOH). Excised inside-out patches were recorded using a Ca^2+-free solution containing (in mM) 140 NaCl, 5 KCl, 1 MgCl2, 10 HEPES and 1 EGTA, pH 7.4 (NaOH) in the pipettes and perfused with 140 KCl, 2 MgATP, 1 EGTA, and 10 HEPES (pH 7.4). DRG neurons were studied using an intracellular solution containing (in mM) 140 CsCl, 1 CaCl2, 2 MgATP, 10 EGTA and 10 HEPES, pH 7.4 (CsOH). Drugs were applied by local microperfusion with a rapid solution changer (RSC-200, Biologic, Claix, France).
# It is possible that MG stimulates TRPA1 through formation of reversible hemithioacetals with cysteine residues other than those examined here, [40]. To investigate this possibility we examined the effect of the reducing agent dithiothreitol (DTT, 2 mM) on outward TRPA1 currents recorded in the absence of Ca^2+ (5 mM BAPTA intracellularly, 1 mM EGTA extracellularly) to avoid Ca^2+-mediated inactivation or desensitization. We used DTT to determine whether disulfide bridge formation or reversible noncovalent interactions contribute to the agonist activity of MG. DTT is expected to rapidly reduce cystine bridges to free thiols, but also to form hemithioacetals with MG, thereby accelerating current decay. Covalent modification of arginine and lysine residues by MG and modification of cysteine residues by AITC are on the other hand resistant to DTT [31]. […] This is consistent with the expected oxidative formation of cystine bridges and their reduction by DTT [4]. The contrast between the stable currents produced by H2O2 and the spontaneously reversible currents evoked by MG highlights the reversible nature of the interaction between MG and TRPA1. […] We also observed that repeated applications of MG and H2O2 evoked reproducible current responses of similar amplitudes, whereas an application of AITC prevented subsequent channel activation by AITC challenges (Fig. 4C-E). We conclude that MG acts through a reversible interaction with TRPA1 and that H2O2 relies on DTT sensitive oxidative modification of TRPA1 protein for its activity. […] In contrast, the covalent modification produced by AITC appears irreversible and renders TRPA1 refractory to subsequent activation.
# mTRPA1 K712Q = biological target: T1, mTRPA1 K712Q (Mus musculus, UniProt Q8BLA8, K712Q); assay: [Ca2+]i-responses of mTRPA1 K712Q in CHO cells; format: cell-based
# T1 construct: expressed in transfected cells; host or cells: CHO cells
# Experimental: (§1) Untransfected CHO cells and CHO cells expressing mouse or human TRPA1 were grown in MEM Glutamax or AQ medium supplemented with penicillin (100 U/ml), streptomycin (100 µg/ml), and FCS (10%). Plasmids encoding mutated TRPA1 channels were kindly provided by Dr. Ardem Patapoutian. All media, serum and antibiotics were from Invitrogen (Paisley, UK) or Sigma (Poole, UK).
# (§2) Cells were loaded with 2 µM Fura-2 AM (Molecular Probes, Paisley, UK) in the presence of 1 mM probenecid for ∼1 hr. The experiments were performed in a physiological saline solution containing (in mM) 140 NaCl, 5 KCl, 10 glucose, 10 HEPES, 2 CaCl2, and 1 MgCl2, buffered to pH 7.4 with NaOH. Compounds were applied to cells by local continuous microperfusion of solution through a fine tube placed in close proximity of the cells studied. Images of a group of cells were captured every 2 sec using 340 and 380 nm excitation wavelengths with emission measured at 520 nm with a microscope based imaging system (PTI, New Jersey). Analyses of emission intensity ratios at 340 nm/380 nm excitation (R, in individual cells) were performed using the ImageMaster suite of software.
# [1] = system: human TRPA1 C621S, C641S or C665S; assay: [Ca2+]i-responses of human TRPA1 point mutants C621S, C641S, C665S; format: cell-based; conditions: human TRPA1 single point mutants vs wildtype
# Experimental: as §1
# as §2, with “Analyses of emission intensity ratios at 340 nm/380 nm excitation (R, in individual cells) were performed using the ImageMaster suite of software.” left out
# Changes in intracellular calcium ([Ca^2+]i) in response to agonists were determined in TRPA1 expressing CHO cells and MDCK cells using a Flexstation 3 (Molecular Devices). […] Basal emission ratios (340 nm/380 nm) were measured and changes in ratio determined at various times after compound addition.
# MDCK cells = assay: [Ca2+]i-measurements in MDCK cells; format: cell-based, Canine
# Experimental: MDCK cells were grown in DMEM (Invitrogen) supplemented with 5% fetal bovine serum, 100 U/ml penicillin and 100 µg/ml streptomycin. […] The experiments were performed in a physiological saline solution containing (in mM) 140 NaCl, 5 KCl, 10 glucose, 10 HEPES, 2 CaCl2, and 1 MgCl2, buffered to pH 7.4 with NaOH. Compounds were applied to cells by local continuous microperfusion of solution through a fine tube placed in close proximity of the cells studied. […] Analyses of emission intensity ratios at 340 nm/380 nm excitation (R, in individual cells) were performed using the ImageMaster suite of software. […] Cells grown in 96 well black walled plates (Costar, Tewksbury, MA) were loaded with Fura 2-AM in the presence of 1 mM probenecid at 37°C for 1–1.5 hours and assays were carried out at 25°C. Basal emission ratios (340 nm/380 nm) were measured and changes in ratio determined at various times after compound addition.
# beta cells = assay: [Ca2+]i-responses in pancreatic beta cells; format: cell-based, mice; conditions: AITC, cells from wildtype or Trpa1-/- mice (data not shown)
# Experimental: Mouse islets of Langerhans were isolated from the exocrine pancreas by collagenase digestion (1 mg/ml, type XI, Sigma, Poole, UK). Islets were dissociated by 15 min incubation in trypsin (0.5%, Sigma, Poole, UK) followed by trituration through a flame polished glass Pasteur pipette and the islet cells were seeded on glass cover slips.
# as §2
# mice = assay: Acute GLO-1 inhibition, paw pressure and von Frey tests; format: in vivo; conditions: 1 h after administration, 50 mg/kg i.p.
# Experimental: (§3) Mechanical thresholds were measured using an Analgesymeter (Ugo-Basile, Milan). Mice were kept in their holding cages to acclimatize (10–15 min) to the experimental room. The experimenter then lightly restrained the mouse and applied an increasing pressure stimulus to the dorsal surface of the hind paw using a blunt conical probe. The nociceptive threshold was defined as the force in grams at which the mouse withdrew its paw. In order to avoid tissue injury a 150 g force cut-off value was used.
# Tactile allodynia was assessed by measuring withdrawal thresholds to calibrated von Frey filaments (0.008–2 g). Animals were placed in a Perspex chamber with a metal grid floor giving access to the underside of their paws and allowed to acclimatize prior to the start of the experiment. […] Using a modified ‘up-down’ method the lowest force filament producing a positive response was recorded as the threshold.
# (§4) Methylglyoxal (250 nmoles in 25 µl saline) was injected subcutaneously into the plantar surface of one of the hind paws using a 50 µl luer-syringe (Hamilton Co.) fitted with a 26-gauge x 3/8 inch intradermal needle. Immediately after injection, mice were placed inside a Perspex chamber and the duration of the pain-related behaviors (licking and biting or flinching and shaking of the injected paw) recorded using a digital stop-watch. […]
# [2] = system: Trpa1+/+ and Trpa1-/- mice; assay: Two week GLO-1 inhibition, nociceptive responses to cold, heat and mechanical stimulation; format: in vivo
# Experimental: Data shown are from male and female homozygote Trpa1^− ^/− and Trpa1 ^+/+. The Trpa1-null mice and wild-type littermates were bred from heterozygotic mice provided by Drs. Kelvin Kwan and David Corey (Harvard Medical School, Boston, MA).
# as §3
# Tactile allodynia was assessed by measuring withdrawal thresholds to calibrated von Frey filaments (0.008–2 g). Animals were placed in a Perspex chamber with a metal grid floor giving access to the underside of their paws and allowed to acclimatize prior to the start of the experiment. Von Frey filaments were applied perpendicular to the mid plantar surface of the hind paw with sufficient force to cause slight bending against the paw and held for a few seconds. This was repeated 5 times at intervals of 1–2 s. A positive response was noted if the paw was sharply withdrawn or there was flinching upon removal of the hair. […] Using a modified ‘up-down’ method the lowest force filament producing a positive response was recorded as the threshold.
# Heat and cold sensitivities were assessed by measuring the time for paw withdrawal from a 50°C hotplate or 10°C coldplate (Ugo Basile, Milan) of lightly restrained mice.
# as §4
# [3] = system: Trpa1+/+ and Trpa1-/- mice; assay: Intraepidermal nerve fiber density in plantar skin (PGP9.5); format: in vivo; conditions: 2 weeks treatment, 50 mg/kg every other day, either genotype
# Experimental: Formalin fixed plantar skin was embedded in paraffin wax and cut in 8 µm sections and stained with rabbit polyclonal anti-PGP9.5 (1 in 5000, Ultraclone Ltd, UK) after citric acid heat induced epitope retrieval. Staining was visualized using anti-rabbit IgG labeled with Alexa-594. The number of PGP9.5 positive fibers crossing the basal membrane into the epidermis was determined in n = 6 mice for each group on a Zeiss Axioplan 2 microscope. The observer was blinded to the treatment.
# [4] = system: Trpa1+/+ and Trpa1-/- mice; assay: Glucose tolerance test, blood glucose; format: in vivo
# Experimental: The glucose tolerance test was performed in mice (not fasted) treated i.p. with 2 g/kg glucose or vehicle (0.2 ml, 0.9% saline). HC030031 (100 mg/kg) or vehicle (DMSO 10%, Tween 80 5%, 0.9% saline 85%) was administered i.p. 30 min before glucose or vehicle. Glucose concentrations were determined using a Contour blood glucose meter (Bayer Diabetes Care) in blood samples taken from the tail-tip.
# T1 sequence (Q8BLA8 whole entry K712Q): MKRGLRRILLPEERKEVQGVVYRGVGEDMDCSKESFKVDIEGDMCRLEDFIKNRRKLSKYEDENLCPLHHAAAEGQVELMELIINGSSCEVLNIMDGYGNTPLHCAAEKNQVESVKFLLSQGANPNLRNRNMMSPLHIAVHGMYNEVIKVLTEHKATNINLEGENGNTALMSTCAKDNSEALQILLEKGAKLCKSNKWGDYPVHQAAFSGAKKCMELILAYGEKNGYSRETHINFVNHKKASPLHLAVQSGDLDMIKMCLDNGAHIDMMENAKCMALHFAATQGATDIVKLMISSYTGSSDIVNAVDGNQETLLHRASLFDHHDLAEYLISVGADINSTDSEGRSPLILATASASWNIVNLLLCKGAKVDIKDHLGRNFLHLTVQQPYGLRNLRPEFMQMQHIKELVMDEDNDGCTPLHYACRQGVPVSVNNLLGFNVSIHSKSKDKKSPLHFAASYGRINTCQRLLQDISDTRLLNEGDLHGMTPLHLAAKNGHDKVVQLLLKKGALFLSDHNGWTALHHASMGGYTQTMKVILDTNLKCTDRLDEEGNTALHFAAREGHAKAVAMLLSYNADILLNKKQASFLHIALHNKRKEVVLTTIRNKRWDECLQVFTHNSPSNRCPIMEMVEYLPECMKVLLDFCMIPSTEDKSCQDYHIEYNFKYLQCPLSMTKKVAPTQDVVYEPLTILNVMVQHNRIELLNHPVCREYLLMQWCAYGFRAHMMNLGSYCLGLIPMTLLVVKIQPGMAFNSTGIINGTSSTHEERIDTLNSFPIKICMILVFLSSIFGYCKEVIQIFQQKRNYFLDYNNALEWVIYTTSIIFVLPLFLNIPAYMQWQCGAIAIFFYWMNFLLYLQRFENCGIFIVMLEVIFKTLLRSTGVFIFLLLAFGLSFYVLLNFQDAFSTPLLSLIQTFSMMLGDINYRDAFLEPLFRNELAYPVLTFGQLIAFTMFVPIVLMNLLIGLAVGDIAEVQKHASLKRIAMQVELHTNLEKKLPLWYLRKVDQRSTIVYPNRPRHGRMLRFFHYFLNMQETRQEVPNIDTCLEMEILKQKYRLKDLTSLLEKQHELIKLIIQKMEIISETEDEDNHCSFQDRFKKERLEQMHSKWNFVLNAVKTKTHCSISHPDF
compound,measurement,setting,value
C=CCN=C=S [AITC],effect of DTT (2 mM) on agonist-evoked TRPA1 current,TRPA1; AITC 50 µM,resistant to treatment with DTT
same,outward TRPA1 current after removal of agonist,TRPA1; AITC 50 µM,declined with time after removal of AITC
same,amplitude of [Ca2+]i-responses in mTRPA1 K712Q compared to WT mTRPA1,mTRPA1 K712Q; AITC 50 µM,significantly reduced
same,"effect of substitutions C621S, C641S, C665S on sensitivity to AITC",[1],very substantially reduced
same,[Ca2+]i-influx response,MDCK cells; 100 µM,evoked [Ca^2+]i-influx responses
same,EC50,"MDCK cells; read-out: EC50, [Ca2+]i-responses",9.1 ± 2 µM
same,[Ca2+]i-responses in beta cells,beta cells,failed to elicit [Ca^2+]i-responses
"CC(=Cc1ccc(Cl)cc1)C(C)=NO [AP18, 4-(4-chlorophenyl)-3-methylbut-3-en-2-one oxime]",effect on concentration-response curves for AITC and MG,MDCK cells; AP18 10 µM,produced similar rightward shifts
"NC(CCC(=O)NC(CSCc1ccc(Br)cc1)C(=O)NCC(=O)OC1CCCC1)C(=O)OC1CCCC1 (stereo not drawn) [GLO-1 inhibitor, Sr-p-Bromobenzylglutathione cyclopentyl diester]",sensitivity in the paw pressure test,mice,unaffected
same,sensitivity in the von Frey filaments test,mice,unaffected
same,sensitivity to all four test modalities,"[2]; Trpa1+/+ mice, after day 4, 7 administrations over 2 weeks, 50 mg/kg i.p.",progressively increased
same,"sensitivity to cold, heat, paw-pressure and von Frey stimulation","[2]; first 4 days of the study, 50 mg/kg i.p. every 2 days",no increased sensitivity in any of the tests
same,persistence of hypersensitivities,[2]; two weeks after cessation of drug administration,no sign of reversal
same,IENF density compared to vehicle treated mice,[3],failed to produce a significant reduction
CC(C)c1ccc(NC(=O)Cn2cnc3c2c(=O)n(C)c(=O)n3C)cc1 [HC030031],blood glucose in mice not challenged with glucose,[4]; 100 mg/kg i.p.,increased the blood glucose
same,blood glucose following a glucose challenge,"[4]; 100 mg/kg i.p. 30 min before glucose 2 g/kg i.p., both Trpa1+/+ and Trpa1-/- mice",dramatically enhanced the increase in blood glucose
O=C/C=C/c1ccccc1 [cinnamaldehyde],[Ca2+]i-influx response,MDCK cells; 1 mM,evoked [Ca^2+]i-influx responses
OO [hydrogen peroxide],effect of DTT (2 mM) on agonist-evoked TRPA1 current,TRPA1; H2O2 5 mM,rapidly reduced the current amplitude
same,outward TRPA1 current after removal of agonist,TRPA1; H2O2 5 mM,remained at a stable amplitude after removal of H2O2
same,[Ca2+]i-influx response,MDCK cells; 20 mM,evoked [Ca^2+]i-influx responses
CC1=C[C@H]2c3c(O)cc(C)cc3OC(C)(C)[C@@H]2CC1 [Δ^9-tetrahydrocannabiorcol],amplitude of [Ca2+]i-responses in mTRPA1 K712Q compared to WT mTRPA1,mTRPA1 K712Q; 20 µM (Fig. 4D),significantly reduced
